{"source": "ChEMBL document CHEMBL1177779", "about": "“Development of dual functional SPECT/fluorescent probes for imaging cerebral beta-amyloid plaques” (Bioorg Med Chem Lett, 2010)", "key": {"[1]": {"assay": "Displacement of [125I]IMPY from amyloid beta (1-42) after 3 hrs by gamma counting"}, "[2]": {"system": "Blood", "assay": "Biodistribution in ddY mouse blood assessed per gram of tissue at 7.77 KBq, iv after 2 mins by gamma counting", "type": "ADME, organism-based", "conditions": "in vivo"}, "[3]": {"system": "Blood", "assay": "Biodistribution in ddY mouse blood assessed per gram of tissue at 7.77 KBq, iv after 10 mins by gamma counting", "type": "ADME, organism-based", "conditions": "in vivo"}, "[4]": {"system": "Blood", "assay": "Biodistribution in ddY mouse blood assessed per gram of tissue at 7.77 KBq, iv after 30 mins by gamma counting", "type": "ADME, organism-based", "conditions": "in vivo, 0.5 h"}, "[5]": {"system": "Blood", "assay": "Biodistribution in ddY mouse blood assessed per gram of tissue at 7.77 KBq, iv after 60 mins by gamma counting", "type": "ADME, organism-based", "conditions": "in vivo, 1 h"}, "[6]": {"system": "Liver", "assay": "Biodistribution in ddY mouse liver assessed per gram of tissue at 7.77 KBq, iv after 2 mins by gamma counting", "type": "ADME, organism-based", "conditions": "in vivo"}, "[7]": {"system": "Liver", "assay": "Biodistribution in ddY mouse liver assessed per gram of tissue at 7.77 KBq, iv after 10 mins by gamma counting", "type": "ADME, organism-based", "conditions": "in vivo"}, "[8]": {"system": "Liver", "assay": "Biodistribution in ddY mouse liver assessed per gram of tissue at 7.77 KBq, iv after 30 mins by gamma counting", "type": "ADME, organism-based", "conditions": "in vivo, 0.5 h"}, "[9]": {"system": "Liver", "assay": "Biodistribution in ddY mouse liver assessed per gram of tissue at 7.77 KBq, iv after 60 mins by gamma counting", "type": "ADME, organism-based", "conditions": "in vivo, 1 h"}, "[10]": {"system": "Kidney", "assay": "Biodistribution in ddY mouse kidney assessed per gram of tissue at 7.77 KBq, iv after 2 mins by gamma counting", "type": "ADME, organism-based", "conditions": "in vivo"}, "[11]": {"system": "Kidney", "assay": "Biodistribution in ddY mouse kidney assessed per gram of tissue at 7.77 KBq, iv after 10 mins by gamma counting", "type": "ADME, organism-based", "conditions": "in vivo"}, "[12]": {"system": "Kidney", "assay": "Biodistribution in ddY mouse kidney assessed per gram of tissue at 7.77 KBq, iv after 30 mins by gamma counting", "type": "ADME, organism-based", "conditions": "in vivo, 0.5 h"}, "[13]": {"system": "Kidney", "assay": "Biodistribution in ddY mouse kidney assessed per gram of tissue at 7.77 KBq, iv after 60 mins by gamma counting", "type": "ADME, organism-based", "conditions": "in vivo, 1 h"}, "[14]": {"system": "Intestine", "assay": "Biodistribution in ddY mouse intestine assessed per gram of tissue at 7.77 KBq, iv after 2 mins by gamma counting", "type": "ADME, organism-based", "conditions": "in vivo"}, "[15]": {"system": "Intestine", "assay": "Biodistribution in ddY mouse intestine assessed per gram of tissue at 7.77 KBq, iv after 10 mins by gamma counting", "type": "ADME, organism-based", "conditions": "in vivo"}, "[16]": {"system": "Intestine", "assay": "Biodistribution in ddY mouse intestine assessed per gram of tissue at 7.77 KBq, iv after 30 mins by gamma counting", "type": "ADME, organism-based", "conditions": "in vivo, 0.5 h"}, "[17]": {"system": "Intestine", "assay": "Biodistribution in ddY mouse intestine assessed per gram of tissue at 7.77 KBq, iv after 60 mins by gamma counting", "type": "ADME, organism-based", "conditions": "in vivo, 1 h"}, "[18]": {"system": "Spleen", "assay": "Biodistribution in ddY mouse spleen assessed per gram of tissue at 7.77 KBq, iv after 2 mins by gamma counting", "type": "ADME, organism-based", "conditions": "in vivo"}, "[19]": {"system": "Spleen", "assay": "Biodistribution in ddY mouse spleen assessed per gram of tissue at 7.77 KBq, iv after 10 mins by gamma counting", "type": "ADME, organism-based", "conditions": "in vivo"}, "[20]": {"system": "Spleen", "assay": "Biodistribution in ddY mouse spleen assessed per gram of tissue at 7.77 KBq, iv after 30 mins by gamma counting", "type": "ADME, organism-based", "conditions": "in vivo, 0.5 h"}, "[21]": {"system": "Spleen", "assay": "Biodistribution in ddY mouse spleen assessed per gram of tissue at 7.77 KBq, iv after 60 mins by gamma counting", "type": "ADME, organism-based", "conditions": "in vivo, 1 h"}, "[22]": {"system": "Pancreas", "assay": "Biodistribution in ddY mouse pancreas assessed per gram of tissue at 7.77 KBq, iv after 2 mins by gamma counting", "type": "ADME, organism-based", "conditions": "in vivo"}, "[23]": {"system": "Pancreas", "assay": "Biodistribution in ddY mouse pancreas assessed per gram of tissue at 7.77 KBq, iv after 10 mins by gamma counting", "type": "ADME, organism-based", "conditions": "in vivo"}, "[24]": {"system": "Pancreas", "assay": "Biodistribution in ddY mouse pancreas assessed per gram of tissue at 7.77 KBq, iv after 30 mins by gamma counting", "type": "ADME, organism-based", "conditions": "in vivo, 0.5 h"}, "[25]": {"system": "Pancreas", "assay": "Biodistribution in ddY mouse pancreas assessed per gram of tissue at 7.77 KBq, iv after 60 mins by gamma counting", "type": "ADME, organism-based", "conditions": "in vivo, 1 h"}, "[26]": {"system": "Heart", "assay": "Biodistribution in ddY mouse heart assessed per gram of tissue at 7.77 KBq, iv after 2 mins by gamma counting", "type": "ADME, organism-based", "conditions": "in vivo"}, "[27]": {"system": "Heart", "assay": "Biodistribution in ddY mouse heart assessed per gram of tissue at 7.77 KBq, iv after 10 mins by gamma counting", "type": "ADME, organism-based", "conditions": "in vivo"}, "[28]": {"system": "Heart", "assay": "Biodistribution in ddY mouse heart assessed per gram of tissue at 7.77 KBq, iv after 30 mins by gamma counting", "type": "ADME, organism-based", "conditions": "in vivo, 0.5 h"}, "[29]": {"system": "Heart", "assay": "Biodistribution in ddY mouse heart assessed per gram of tissue at 7.77 KBq, iv after 60 mins by gamma counting", "type": "ADME, organism-based", "conditions": "in vivo, 1 h"}, "[30]": {"system": "Stomach", "assay": "Biodistribution in ddY mouse stomach assessed per organ at 7.77 KBq, iv after 2 mins by gamma counting", "type": "ADME, organism-based", "conditions": "in vivo"}, "[31]": {"system": "Stomach", "assay": "Biodistribution in ddY mouse stomach assessed per organ at 7.77 KBq, iv after 10 mins by gamma counting", "type": "ADME, organism-based", "conditions": "in vivo"}, "[32]": {"system": "Stomach", "assay": "Biodistribution in ddY mouse stomach assessed per organ at 7.77 KBq, iv after 30 mins by gamma counting", "type": "ADME, organism-based", "conditions": "in vivo, 0.5 h"}, "[33]": {"system": "Stomach", "assay": "Biodistribution in ddY mouse stomach assessed per organ at 7.77 KBq, iv after 60 mins by gamma counting", "type": "ADME, organism-based", "conditions": "in vivo, 1 h"}, "[34]": {"system": "Brain", "assay": "Biodistribution in ddY mouse brain assessed per gram of tissue at 7.77 KBq, iv after 2 mins by gamma counting", "type": "ADME, organism-based", "conditions": "in vivo"}, "[35]": {"system": "Brain", "assay": "Biodistribution in ddY mouse brain assessed per gram of tissue at 7.77 KBq, iv after 10 mins by gamma counting", "type": "ADME, organism-based", "conditions": "in vivo"}, "[36]": {"system": "Brain", "assay": "Biodistribution in ddY mouse brain assessed per gram of tissue at 7.77 KBq, iv after 30 mins by gamma counting", "type": "ADME, organism-based", "conditions": "in vivo, 0.5 h"}, "[37]": {"system": "Brain", "assay": "Biodistribution in ddY mouse brain assessed per gram of tissue at 7.77 KBq, iv after 60 mins by gamma counting", "type": "ADME, organism-based", "conditions": "in vivo, 1 h"}}}
{"smiles": "CC1=CC(C)=[N+]2C1=Cc1ccc(/C=C/c3ccc(-c4ccc(I)cc4)s3)n1[B-]2(F)F", "values": [{"measurement": "Ki", "setting": "[1]", "result": 108, "unit": "nM"}, {"measurement": "inhibition", "setting": "[1]", "result": "Dose-dependent effect"}]}
{"smiles": "CC1=CC(C)=[N+]2C1=Cc1ccc(/C=C/c3ccc(-c4ccc([125I])cc4)s3)n1[B-]2(F)F", "values": [{"measurement": "Drug uptake", "setting": "[2]", "result": 11.67, "unit": "% ID/g"}, {"measurement": "Drug uptake", "setting": "[3]", "result": 4.09, "unit": "% ID/g"}, {"measurement": "Drug uptake", "setting": "[4]", "result": 3.09, "unit": "% ID/g"}, {"measurement": "Drug uptake", "setting": "[5]", "result": 2.44, "unit": "% ID/g"}, {"measurement": "Drug uptake", "setting": "[6]", "result": 35.51, "unit": "% ID/g"}, {"measurement": "Drug uptake", "setting": "[7]", "result": 46.02, "unit": "% ID/g"}, {"measurement": "Drug uptake", "setting": "[8]", "result": 45.87, "unit": "% ID/g"}, {"measurement": "Drug uptake", "setting": "[9]", "result": 45.78, "unit": "% ID/g"}, {"measurement": "Drug uptake", "setting": "[10]", "result": 5.39, "unit": "% ID/g"}, {"measurement": "Drug uptake", "setting": "[11]", "result": 4.79, "unit": "% ID/g"}, {"measurement": "Drug uptake", "setting": "[12]", "result": 4.46, "unit": "% ID/g"}, {"measurement": "Drug uptake", "setting": "[13]", "result": 4.43, "unit": "% ID/g"}, {"measurement": "Drug uptake", "setting": "[14]", "result": 0.48, "unit": "% ID/g"}, {"measurement": "Drug uptake", "setting": "[15]", "result": 0.93, "unit": "% ID/g"}, {"measurement": "Drug uptake", "setting": "[16]", "result": 1.91, "unit": "% ID/g"}, {"measurement": "Drug uptake", "setting": "[17]", "result": 3.04, "unit": "% ID/g"}, {"measurement": "Drug uptake", "setting": "[18]", "result": 16.12, "unit": "% ID/g"}, {"measurement": "Drug uptake", "setting": "[19]", "result": 26.9, "unit": "% ID/g"}, {"measurement": "Drug uptake", "setting": "[20]", "result": 28.21, "unit": "% ID/g"}, {"measurement": "Drug uptake", "setting": "[21]", "result": 21.52, "unit": "% ID/g"}, {"measurement": "Drug uptake", "setting": "[22]", "result": 1.19, "unit": "% ID/g"}, {"measurement": "Drug uptake", "setting": "[23]", "result": 0.74, "unit": "% ID/g"}, {"measurement": "Drug uptake", "setting": "[24]", "result": 0.72, "unit": "% ID/g"}, {"measurement": "Drug uptake", "setting": "[25]", "result": 0.92, "unit": "% ID/g"}, {"measurement": "Drug uptake", "setting": "[26]", "result": 5.59, "unit": "% ID/g"}, {"measurement": "Drug uptake", "setting": "[27]", "result": 2.95, "unit": "% ID/g"}, {"measurement": "Drug uptake", "setting": "[28]", "result": 2.31, "unit": "% ID/g"}, {"measurement": "Drug uptake", "setting": "[29]", "result": 2.3, "unit": "% ID/g"}, {"measurement": "Drug uptake", "setting": "[30]", "result": 1.4, "unit": "%ID"}, {"measurement": "Drug uptake", "setting": "[31]", "result": 4.73, "unit": "%ID"}, {"measurement": "Drug uptake", "setting": "[32]", "result": 4.79, "unit": "%ID"}, {"measurement": "Drug uptake", "setting": "[33]", "result": 5.5, "unit": "%ID"}, {"measurement": "Drug uptake", "setting": "[34]", "result": 0.4, "unit": "% ID/g"}, {"measurement": "Drug uptake", "setting": "[35]", "result": 0.19, "unit": "% ID/g"}, {"measurement": "Drug uptake", "setting": "[36]", "result": 0.14, "unit": "% ID/g"}, {"measurement": "Drug uptake", "setting": "[37]", "result": 0.14, "unit": "% ID/g"}]}
